Laboratory results reported in US20200246316A1, “METHODS OF TREATING POST-SURGICAL PAIN WITH A THIAZOLINE ANTI-HYPERALGESIC AGENT” (CERSCI THERAPEUTICS, INC., priority 2019, published 2020).
Where a name gives a salt, the structure may show the parent alone.

Assay: Dose formulation stability (HPLC/UV)
Assay type: physicochemical
Experimental: Dose formulation analysis for all good laboratory practice (GLP) general toxicology studies was performed using a validated high-performance liquid chromatography (HPLC)/ultraviolet (UV) analytical method (2750-001-001 Dose Formulation Method 1). The vehicle used in the in vivo toxicology studies was 0.5% HPMC). The analytical method utilized HPLC with monitoring at 227 nm with an isocratic mobile phase of methanol with the column temperature set to 25° C. Linearity over a range of 1.0 to 200 mg/mL was observed. Dose formulations over this range were stable at room temperature for up to 13 days and were stable when stored frozen at −20° C. for up to 85 days.
In addition, formulation analysis for in vitro genetic toxicology studies was performed using a validated HPLC/UV analytical method (2750-001-001 Dose Formulation Method No. 2) with linearity over a range of 0.001 to 50 mg/mL. Dose formulations for in vitro assays were stable at room temperature for up to 1 day and when stored frozen at −20° C. for up to 45 days.

## CC1(C)SC(Nc2ccccc2O)=N[C@@H]1C(=O)O [Compound 1, (R)-2-(2-hydroxyphenylamino)-5,5-dimethyl-4,5-dihydrothiazole-4-carboxylic acid mono-hydrochloride]
0.5% HPMC, 1.0 to 200 mg/mL, room temperature
  dose formulation stability: up to 13 days
0.5% HPMC, 1.0 to 200 mg/mL, stored frozen at −20° C.
  dose formulation stability: up to 85 days
Formulations for in vitro assays, 0.001 to 50 mg/mL, room temperature
  dose formulation stability: up to 1 day
Formulations for in vitro assays, 0.001 to 50 mg/mL, stored frozen at −20° C.
  dose formulation stability: up to 45 days
